Several values for one entry are separate records, joined by “and”; a condition that tells them apart may be missing. Equal values may be shown once. Inconclusive results and toxic doses are left out. How the source made its calls: active means survival T/C of 150% or more; inactive means T/C below 125% in these data.
Test system: P388 leukemia ip, CD2F1 mice, survival T/C
Test: NCI In Vivo Anticancer Drug Screen. Data for tumor model P388 Leukemia (intraperitoneal) in CD2F1 (CDF1) mice
Conditions: endpoint: median survival time, higher = longer survival
Method in brief: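 Mice carrying the transplanted tumor received test compound or vehicle. Survival was recorded in each group, and the value is the treated-group measurement divided by that of the vehicle-treated control group.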

[1] = dose: 50.0 mg/kg/injection, schedule: Q01DX005 (ip), vehicle: saline with Tween-80
[2] = dose: 100.0 mg/kg/injection, schedule: Q01DX005 (ip), vehicle: saline with Tween-80
[3] = dose: 200.0 mg/kg/injection, schedule: Q01DX005 (ip), vehicle: saline with Tween-80
[4] = dose: 6.25 mg/kg/injection, schedule: Q01DX009 (ip), vehicle: saline with Tween-80
[5] = dose: 12.5 mg/kg/injection, schedule: Q01DX009 (ip), vehicle: saline with Tween-80
[6] = dose: 25.0 mg/kg/injection, schedule: Q01DX009 (ip), vehicle: saline with Tween-80
[7] = dose: 25.0 mg/kg/injection, schedule: Q04DX003 (ip), vehicle: Klucel (hydroxypropylcellulose) (HPC)
[8] = dose: 50.0 mg/kg/injection, schedule: Q01DX005 (ip), vehicle: Klucel (hydroxypropylcellulose) (HPC)
[9] = dose: 100.0 mg/kg/injection, schedule: Q01DX005 (ip), vehicle: Klucel (hydroxypropylcellulose) (HPC)
[10] = dose: 200.0 mg/kg/injection, schedule: Q01DX005 (ip), vehicle: Klucel (hydroxypropylcellulose) (HPC)
[11] = dose: 50.0 mg/kg/injection, schedule: Q01DX009 (ip), vehicle: saline with Tween-80
[12] = dose: 100.0 mg/kg/injection, schedule: Q01DX009 (ip), vehicle: saline with Tween-80
[13] = dose: 200.0 mg/kg/injection, schedule: Q01DX009 (ip), vehicle: saline with Tween-80

Measured: T/C

c1ccc(-c2cnc3nc4[nH]c5ccccc5c4nn23)cc1
inactive: [1] 98 % of control | [2] 92 % of control | [3] 98 % of control

CCc1nc(N)nc(N)c1-c1ccc(NCCN)c([N+](=O)[O-])c1
inactive: dose: 60.0 mg/kg/injection, schedule: Q01DX005 (ip), vehicle: saline with Tween-80 113 % of control | dose: 120.0 mg/kg/injection, schedule: Q01DX005 (ip), vehicle: saline with Tween-80 116 % of control | dose: 240.0 mg/kg/injection, schedule: Q01DX005 (ip), vehicle: saline with Tween-80 116 % of control

O=C(Nc1cccnc1)c1ccccc1
inactive: [4] 100 % of control | [5] 100 % of control | [6] 100 % of control

COCCC(=O)NC1CCCC[CH]1[Hg][Cl] (stereo not given)
inactive: [7] 97 % of control

O=C1CC(c2ccccc2)C(c2ccccc2)C1=O (stereo not given)
inactive: dose: 12.5 mg/kg/injection, schedule: Q04DX003 (ip), vehicle: Klucel (hydroxypropylcellulose) (HPC) 107 % of control | [7] 102 % of control | dose: 50.0 mg/kg/injection, schedule: Q04DX003 (ip), vehicle: Klucel (hydroxypropylcellulose) (HPC) 102 % of control

NC(=O)C(=O)c1c(-c2ccccc2)c(-c2ccccc2)c2n1CCC2
inactive: [8] 100 % of control | [9] 99 % of control | [10] 93 % of control

COC1=C(OC)C(=O)C(Sc2ccc3ccccc3c2)=CC1=O
inactive: [4] 103 % of control and 104 % of control | [5] 104 % of control | [6] 104 % of control and 119 % of control | [11] 100 % of control and 111 % of control | [12] 100 % of control

C1COC(NC2CC3CCC2C3)=N1 (stereo not given)
inactive: dose: 6.25 mg/kg/injection, schedule: Q04DX003 (ip), vehicle: saline with Tween-80 100 % of control | dose: 12.5 mg/kg/injection, schedule: Q04DX003 (ip), vehicle: saline with Tween-80 100 % of control | dose: 25.0 mg/kg/injection, schedule: Q04DX003 (ip), vehicle: saline with Tween-80 100 % of control

CSc1cccc(NC(=O)N2CCCCC2C)c1 (stereo not given)
inactive: [11] 100 % of control | [12] 92 % of control | [13] 100 % of control

COc1ccc(S(=O)(=O)NN)cc1
inactive: dose: 25.0 mg/kg/injection, schedule: Q01DX009 (ip), vehicle: other 106 % of control | dose: 50.0 mg/kg/injection, schedule: Q01DX009 (ip), vehicle: other 103 % of control | dose: 100.0 mg/kg/injection, schedule: Q01DX009 (ip), vehicle: other 104 % of control | dose: 200.0 mg/kg/injection, schedule: Q01DX009 (ip), vehicle: other 106 % of control

CN1CCC(/C=C/c2cccc3ccccc23)CN1 (stereo not given) (tested in a mixture with another compound)
inactive: dose: 50.0 mg/kg/injection, schedule: Q01DX009 (ip), vehicle: saline 108 % of control | dose: 100.0 mg/kg/injection, schedule: Q01DX009 (ip), vehicle: saline 99 % of control

CCCCCC(=O)O[C@H]1CC[C@@H]2[C@H]1[C@@H]1CCC=C1C2(C)C
inactive: dose: 100.0 mg/kg/injection, schedule: Q01DX001 (ip), vehicle: Klucel (hydroxypropylcellulose) (HPC) 97 % of control | dose: 200.0 mg/kg/injection, schedule: Q01DX001 (ip), vehicle: Klucel (hydroxypropylcellulose) (HPC) 99 % of control | dose: 400.0 mg/kg/injection, schedule: Q01DX001 (ip), vehicle: Klucel (hydroxypropylcellulose) (HPC) 100 % of control

C=CC1=C(C)C(/C=c2/[nH]/c(=C\c3[nH]c(/C=C4/NC(=O)C(C)=C4C=C)c(C)c3CCC(=O)O)c(CCC(=O)O)c2C)=NC1=O
inactive: [11] 95 % of control | [12] 91 % of control | [13] 88 % of control

CC(C)COC(=O)N1c2ccccc2C=CC1OCC(C)C (stereo not given)
inactive: dose: 1.56 mg/kg/injection, schedule: Q01DX005 (ip), vehicle: Klucel (hydroxypropylcellulose) (HPC) 104 % of control | dose: 3.12 mg/kg/injection, schedule: Q01DX005 (ip), vehicle: Klucel (hydroxypropylcellulose) (HPC) 100 % of control | dose: 6.25 mg/kg/injection, schedule: Q01DX005 (ip), vehicle: Klucel (hydroxypropylcellulose) (HPC) 104 % of control | dose: 6.25 mg/kg/injection, schedule: Q01DX005 (ip), vehicle: saline with Tween-80 109 % of control | dose: 12.5 mg/kg/injection, schedule: Q01DX005 (ip), vehicle: saline with Tween-80 112 % of control

COC1=C(OC)S[C@H]2C3CC([C@H]2S1)[C@@H]1SC(OC)=C(OC)S[C@H]31
inactive: [8] 97 % of control | [9] 97 % of control | [10] 98 % of control

COC(=O)CCCN1CC2C=C(C#N)C1C(C(=O)OC)C2 (stereo not given)
inactive: dose: 60.0 mg/kg/injection, schedule: Q01DX005 (ip), vehicle: saline 98 % of control | dose: 120.0 mg/kg/injection, schedule: Q01DX005 (ip), vehicle: saline 96 % of control

CC1C2COCC2CC2OC21 (stereo not given)
inactive: dose: 6.25 mg/kg/injection, schedule: Q01DX001 (ip), vehicle: saline with Tween-80 109 % of control | dose: 12.5 mg/kg/injection, schedule: Q01DX001 (ip), vehicle: saline with Tween-80 100 % of control | dose: 25.0 mg/kg/injection, schedule: Q01DX001 (ip), vehicle: saline with Tween-80 104 % of control

CC1=C(CO)C(=O)OC(C(C)C2CCC3C4CC5OC56C(O)CCC(=O)C6(C)C4CCC23C)C1 (stereo not given)
inactive: dose: 11.15 mg/kg/injection, schedule: Q01DX009 (ip), vehicle: saline + alcohol 95 % of control | dose: 22.3 mg/kg/injection, schedule: Q01DX009 (ip), vehicle: saline + alcohol 99 % of control | dose: 44.6 mg/kg/injection, schedule: Q01DX009 (ip), vehicle: saline + alcohol 101 % of control

CC#CCOCC(O)CO (stereo not given)
inactive: dose: 12.5 mg/kg/injection, schedule: Q01DX009 (ip), vehicle: water 105 % of control | dose: 25.0 mg/kg/injection, schedule: Q01DX009 (ip), vehicle: water 108 % of control | dose: 50.0 mg/kg/injection, schedule: Q01DX009 (ip), vehicle: water 121 % of control | dose: 67.0 mg/kg/injection, schedule: Q01DX009 (ip), vehicle: water 120 % of control

COC(=O)C1=CCOc2c1c(C(=O)OC)nn2C
inactive: [1] 97 % of control | [2] 98 % of control | [3] 96 % of control

COC1/C=C\OC2(C)Oc3c(C)c(O)c4c(O)c(c5[nH]c(-c6ccccc6)nc5c4c3C2=O)NC(=O)/C(C)=C\C=C\C(C)C(O)C(C)C(O)C(C)C(OC(C)=O)C1C (stereo not given)
inactive: dose: 25.0 mg/kg/injection, schedule: Q01DX009 (ip), vehicle: Klucel (hydroxypropylcellulose) (HPC) 106 % of control | dose: 50.0 mg/kg/injection, schedule: Q01DX009 (ip), vehicle: Klucel (hydroxypropylcellulose) (HPC) 100 % of control | dose: 100.0 mg/kg/injection, schedule: Q01DX009 (ip), vehicle: Klucel (hydroxypropylcellulose) (HPC) 88 % of control

CN(C)CCOC1OCN(C)CC1(C)C (stereo not given)
inactive: [11] 104 % of control | [12] 111 % of control | [13] 110 % of control

Nc1cc(=O)n2cn[nH]c2n1
inactive: dose: 100.0 mg/kg/injection, schedule: Q04DX002 (ip), vehicle: saline with Tween-80 100 % of control | dose: 200.0 mg/kg/injection, schedule: Q04DX002 (ip), vehicle: saline with Tween-80 103 % of control | dose: 400.0 mg/kg/injection, schedule: Q04DX002 (ip), vehicle: saline with Tween-80 103 % of control

O=C1NC(=O)C(c2ccccc2)(c2ccccc2)C2CC3c4[nH]c5ccccc5c4CCN3CC12 (stereo not given)
inactive: dose: 25.0 mg/kg/injection, schedule: Q01DX001 (ip), vehicle: saline 117 % of control | dose: 50.0 mg/kg/injection, schedule: Q01DX001 (ip), vehicle: saline 88 % of control | dose: 100.0 mg/kg/injection, schedule: Q01DX001 (ip), vehicle: saline 114 % of control and 90 % of control

CC1(C)COC2(c3ccccc3)N(c3ccccc3)C(=O)ON12 (stereo not given)
inactive: dose: 60.0 mg/kg/injection, schedule: Q01DX001 (ip), vehicle: Klucel (hydroxypropylcellulose) (HPC) 100 % of control | dose: 120.0 mg/kg/injection, schedule: Q01DX001 (ip), vehicle: Klucel (hydroxypropylcellulose) (HPC) 100 % of control | dose: 240.0 mg/kg/injection, schedule: Q01DX001 (ip), vehicle: Klucel (hydroxypropylcellulose) (HPC) 103 % of control

N#C/C(=N\Nc1ccc(Cl)cc1)C(=O)C1CC1
inactive: dose: 15.0 mg/kg/injection, schedule: Q01DX005 (ip), vehicle: Klucel (hydroxypropylcellulose) (HPC) 105 % of control | dose: 30.0 mg/kg/injection, schedule: Q01DX005 (ip), vehicle: Klucel (hydroxypropylcellulose) (HPC) 98 % of control | dose: 60.0 mg/kg/injection, schedule: Q01DX005 (ip), vehicle: Klucel (hydroxypropylcellulose) (HPC) 99 % of control and 91 % of control

— PubChem BioAssay AID330 (DTP/NCI, 2004)
